Laboratory results taken from PMC10223470 (Molecules, 2023).

Key:
mice [1] = test: Motor coordination, chimney test; format: in vivo; settings: 25, 50 and 75 mg/kg i.p., 60 min before testing
Method: (§1) The experiments were carried out on 6 weeks old naive Swiss male mice (Experimental Medicine Center (OMD), Lublin, Poland), weighing 28–30 g. The cages with mice were located in air-conditioned rooms maintaining the ambient temperature within the range of 23–25 °C. The animals were provided with a natural 12 h day/night cycle, replicating the day and night mode. Each testing group was represented by 8–10 animals, depending on the research schedule. All experiments were conducted according to the National Institute of Health Guidelines for the Care and Use of Laboratory Animals (8th edition) and to the European Community Council Directive for the Care and Use of Laboratory Animals of 22 September 2010 (2010/63/EU) and were approved by the Local Ethical Committee (number of ethical approval: 147/2018). Compound 17 (25, 50, 75 mg/kg) was suspended in 1% Tween 80 in saline solution and was administered intraperitoneally (i.p.) 60 min before the test. […] Imipramine hydrochloride (30 mg/kg, Sigma-Aldrich was administered intraperitoneally (i.p.) 60 min before the test. […] Sigma-Aldrich, USA) was given subcutaneously (s.c.). Prior to administration, the agent was dissolved in saline and injected 30 min before the test. […] Motor coordination has been assessed in mice using the chimney test and the rotarod test, according to the procedure we had used before. […]

mice [2] = test: Motor coordination, rotarod test; format: in vivo; settings: 25, 50 and 75 mg/kg i.p., 60 min before testing
Method: as §1

human D2S receptor = molecular target: T1, human D2S receptor (Homo sapiens, UniProt P14416); test: Functional assays of cAMP signalling at D2 receptors (CHO-K1 cells, HTRF); format: cell-based
T1 construct: expressed in transfected cells; host or cells: CHO-K1
Method: The assessment of the activity of selected compounds at the D2 receptor was performed in cell-based functional assays of cAMP signaling, in the CHO-K1 cell line with stable expression of the cloned human D2S receptor, which was also employed for the radioligand binding assays. For D2 receptor antagonism, test compounds were dispensed into an empty 96-well plate (Isoplate-96 Black Frame White Well, PerkinElmer España SL, Madrid, Spain) with the use of the dispensing noncontact Echo 550 acoustic liquid handler (LABCYTE Inc., San Jose, CA, USA). Compounds were handled from frozen 10^−2 M stock solutions in 100% DMSO, from which serial 1000× solutions were prepared in 100% DMSO at the time of the assay, keeping vehicle concentration (0.1% DMSO) constant in the assay. Vials containing viable frozen cells were quickly thawed in a 37 °C water bath and cells were seeded into the assay plate in assay buffer (kit stimulation buffer containing 500 µM 3-isobutyl-1-methylxanthine (IBMX), which was directly added to the buffer as powder). […] After 10 min incubation at 37 °C, 10 µM forskolin was added to the corresponding wells, and incubation was continued for 5 min. After this time, cellular cAMP levels were quantified using the homogeneous time-resolved fluorescence (HTRF)-based cAMP Gs dynamic kit (Cisbio, Bioassays, Codolet, France) according to the manufacturer’s protocol. […] Basal cAMP levels were determined in control wells in the absence of compound, agonist, and forskolin.

[3] = molecular target: T2, human dopamine D3 receptor (Homo sapiens, UniProt P35462); test: Competition radioligand binding at human D3 receptor ([3H]-Spiperone); settings: mean ± SEM of 2 independent experiments, read-out: huD3 % inh. at 10 µM
T2 construct: expressed in transfected cells; host or cells: CHO-K1
Method: (§2) Competition radioligand binding assays were performed on membranes isolated from cell lines stably expressing the cloned human receptors, which were either in-house or commercially available. […] Assays (250 μL assay final volume) were carried out in 96-well polypropylene plates in duplicate. In short, the suspension of appropriate membrane protein was incubated in an assay buffer with the addition of the corresponding radioligand, in the presence or absence of a tested compound or reference compound. […] After the incubation, the content of the test plates was transferred to 96 well plates with glass fiber filter GF/B or GF/C, previously pretreated with polyethyleneimine (PEI), and rapidly filtered with the use of vacuum, followed by rapid washing with cold (4 °C) wash buffer. After that, the filter plates were dried at 60 °C for 1 h. Then, 30 μL of liquid scintillation cocktail (UniverSol-ES, MP Biomedicals, Solon, OH, USA) was added to each well of the filter plates, and the radioactivity was measured in a MicroBeta^2 microplate scintillation counter (PerkinElmer, Madrid, Spain).
(§3) Competition binding curves were fitted to a one-site competition binding model (Fit Ki) with the use of Prism 7 software (GraphPad, San Diego, CA, USA). logKi (log of the equilibrium dissociation constant (Ki)) values were obtained after constraining the concentration of radioligand employed in the assay and its dissociation constant (KD) as determined in saturation radioligand binding assays.

human 5-HT2A receptor = molecular target: T3, human 5-HT2A receptor (Homo sapiens, UniProt P28223); test: Competition radioligand binding at human 5-HT2A receptor ([3H]-Ketanserin); settings: mean ± SEM of 2 independent experiments, read-out: hu5-HT2A % inh. at 10 µM
T3 construct: expressed in transfected cells; host or cells: CHO-K1
Method: as §2, §3

T1 sequence (P14416 1-414 isoform P14416-2): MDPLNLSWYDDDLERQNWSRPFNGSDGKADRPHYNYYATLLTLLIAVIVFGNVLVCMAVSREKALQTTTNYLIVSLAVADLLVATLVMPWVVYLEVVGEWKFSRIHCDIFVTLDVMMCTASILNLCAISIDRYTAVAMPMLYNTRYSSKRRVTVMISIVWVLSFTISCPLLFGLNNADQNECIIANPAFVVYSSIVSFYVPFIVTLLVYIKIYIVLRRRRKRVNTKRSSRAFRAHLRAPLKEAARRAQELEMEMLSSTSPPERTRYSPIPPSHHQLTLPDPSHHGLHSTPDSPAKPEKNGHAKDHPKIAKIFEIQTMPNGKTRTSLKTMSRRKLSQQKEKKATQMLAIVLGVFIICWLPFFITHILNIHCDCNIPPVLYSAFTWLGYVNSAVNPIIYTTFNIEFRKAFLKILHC
T3 sequence (P28223 whole entry): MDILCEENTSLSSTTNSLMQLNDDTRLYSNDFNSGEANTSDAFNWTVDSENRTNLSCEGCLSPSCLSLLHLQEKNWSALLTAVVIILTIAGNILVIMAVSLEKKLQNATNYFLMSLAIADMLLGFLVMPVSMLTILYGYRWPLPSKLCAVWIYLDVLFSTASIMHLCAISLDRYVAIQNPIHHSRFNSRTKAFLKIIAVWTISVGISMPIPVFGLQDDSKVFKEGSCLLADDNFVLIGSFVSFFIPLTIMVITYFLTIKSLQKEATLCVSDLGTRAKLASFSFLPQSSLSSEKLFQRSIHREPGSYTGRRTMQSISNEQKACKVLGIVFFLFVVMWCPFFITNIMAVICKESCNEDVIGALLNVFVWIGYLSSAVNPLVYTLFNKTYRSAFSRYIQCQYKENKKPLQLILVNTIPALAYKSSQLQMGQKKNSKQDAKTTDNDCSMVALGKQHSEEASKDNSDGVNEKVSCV
T2 sequence (P35462 whole entry): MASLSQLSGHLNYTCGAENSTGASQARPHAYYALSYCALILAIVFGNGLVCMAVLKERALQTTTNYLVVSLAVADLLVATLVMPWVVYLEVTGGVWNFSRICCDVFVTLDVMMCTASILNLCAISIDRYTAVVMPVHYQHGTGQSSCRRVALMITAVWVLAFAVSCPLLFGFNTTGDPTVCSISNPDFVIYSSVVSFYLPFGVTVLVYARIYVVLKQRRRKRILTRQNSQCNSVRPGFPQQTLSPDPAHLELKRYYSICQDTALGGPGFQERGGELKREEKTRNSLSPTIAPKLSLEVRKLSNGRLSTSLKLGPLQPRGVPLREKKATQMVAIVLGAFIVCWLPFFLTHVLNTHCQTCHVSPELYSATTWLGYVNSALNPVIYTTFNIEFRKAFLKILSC

O=C(CCN1C(=O)CSc2ccccc21)Nc1ccc(Cl)cc1 [Compound 17, N-(4-Chlorophenyl)-3-(3-oxo-2,3-dihydro-4H-benzo[b][1,4]thiazin-4-yl)propanamide]
effect on behavior in the chimney test (mice [1]): did not change the behavior
time to leave the chimney (mice [1]): ≤ 30 s
effect on behavior in the rotarod test (mice [2]): did not influence mice behavior
Kb (human D2S receptor; antagonism of 1 µM dopamine response, forskolin-stimulated cAMP, three independent experiments, read-out: D2 Signalling (cAMP) pKb (Mean ± SEM) (converted)): 0.0269 µM
efficacy at D2 receptor (mode of action) (human D2S receptor; cAMP signaling, CHO-K1 cells): antagonism
inhibition at 10 µM [3]: 6 ± 3%
inhibition at 10 µM (human 5-HT2A receptor): 28 ± 1%
